The text below walks through data of ChEMBL document CHEMBL5120940, “Indolactam Dipeptides as Nanomolar Gli Inhibitors” (ACS Med Chem Lett, 2022).

Each structure is given as a SMILES string. Activity calls are given as the source filed them. The calls are words filed in the database; no cut-off is given here. Some results are limits rather than exact numbers.

Format in all cases: cell-based
One assay relates to Shh Light II. Put plainly: Inhibition of GLI in SAG induced mouse Shh Light II cells assessed as residual Smo-dependent Gli luciferase activity in starvation medium at 100 nM incubated for 30 hrs by dual luciferase assay.
The nature of assay [1]: Inhibition of GLI in SAG induced mouse Shh Light II cells assessed as residual Smo-dependent Gli luciferase activity in starvation medium incubated for 30 hrs by dual luciferase assay.
In a further assay the test system is Sufu-KO-LIGHT. As to the kind of experiment: Inhibition of GLI in SAG induced mouse Sufu-KO-LIGHT cells assessed as residual Smo-independent Gli luciferase activity in starvation medium at 100 nM incubated for 30 hrs by dual luciferase assay.
Assay [2] in a line: Inhibition of GLI in SAG induced mouse Sufu-KO-LIGHT cells assessed as residual Smo-independent Gli luciferase activity in starvation medium incubated for 30 hrs by dual luciferase assay.
The nature of assay [3]: Inhibition of GLI in mouse ASZ001 cells assessed as reduction in cell viability in starvation medium incubated for 48 hrs by CellTiter assay. To be noted: ASZ001, 48 h.
A short description of assay [4]: Inhibition of GLI in SAG induced mouse C3H10T1/2 cells assessed reduction Gli-dependent differentiation by measuring ALP activity incubated for 48 hrs by chemiluminescence assay. To be noted: C3H 10T1/2, 48 h.
A further assay has as its system NIH/3T3. Put plainly: Inhibition of GLI in mouse NIH/3T3 cells assessed as reduction in CMV-driven firefly luciferase activity in starvation medium at 100 nM incubated for 30 hrs by Bright-Glo luciferase assay.
The next assay deals with ASZ001. As to the kind of experiment: Inhibition of GLI in mouse ASZ001 cells assessed as reduction in cell viability in starvation medium at 1.5 uM incubated for 48 hrs by CellTiter assay relative to control.

The IC50 is the midpoint of a concentration-inhibition curve. Turning to `COC(=O)[C@@H]1Cc2c[nH]c3cccc(c23)N(C)[C@@H](C(C)C)C(=O)N1`, the Activity came out at 99% in the assay with Shh Light II and 67% with Sufu-KO-LIGHT. For the same compound, the figures for the IC50 in assay [1] and in assay [2] were 3460 nM and 77 nM, respectively.

Take `CC(=O)n1cc2c3c(cccc31)N(C)[C@@H](C(C)C)C(=O)N[C@H](CO)C2`: the Activity is 73% in the assay on Shh Light II and 67% in the assay with Sufu-KO-LIGHT. Moreover, the IC50 in assay [1] came out at 195 nM; in assay [2] it was 655 nM.

Consider `CS(=O)(=O)c1ccc(C(=O)Nc2ccc(Cl)c(-c3ccccn3)c2)c(Cl)c1` [VISMODEGIB], for which the IC50 is 2 nM in assay [3], 37 nM in assay [1], more than 5000 nM in assay [2] and 58 nM in assay [4]. For the same compound, the Activity with Shh Light II came out at 43%; in the assay on Sufu-KO-LIGHT, 96%.

For `CCC(C)[C@H]1C(=O)N[C@H](CO)Cc2c[nH]c3cccc(c23)N1C` (some centres not stated), the Activity in the assay with Shh Light II came out at 53%; in the assay on Sufu-KO-LIGHT, 36%. In addition, the IC50 in assay [1] was 33 nM; in assay [2] it was 6.8 nM; in assay [4], 30 nM. Moreover, the outcome with NIH/3T3 was Active.

Take `C=C[C@@](C)(CCC=C(C)C)c1ccc2c3c(c[nH]c13)C[C@@H](CO)NC(=O)[C@H](C(C)C)N2C`: the Activity in the assay with Shh Light II was determined as 90%; with Sufu-KO-LIGHT, 47%. For the same compound, the 50% inhibitory concentration (IC50) in assay [1] and in assay [2] was more than 5000 nM throughout.

A word on the inhibition: it is how much of the control response was suppressed. `CC(C)[C@H]1C(=O)N[C@H](CO)Cc2c[nH]c3cccc(c23)N1C` [INDOLACTUM]: in the assay with ASZ001, the inhibition turned out to be 62%. Further, the Activity in the assay on Shh Light II was 68%; in the assay with Sufu-KO-LIGHT, 39%. The results for the IC50 in assay [1], in assay [2] and in assay [4] were 33 nM, 13 nM and 171 nM, respectively. Besides, the outcome in the assay with NIH/3T3 was Active.

On to `CC(C)[C@H]1C(=O)N[C@H](CO)Cc2cn(C(C)C)c3cccc(c23)N1C`, for which the Activity was 96% in the assay with Shh Light II and 78% in the assay on Sufu-KO-LIGHT. Also, the IC50 in assay [1] turned out to be 309 nM; in assay [2], 464 nM.

As to `CC(C)[C@H]1C(=O)N[C@H](CO)Cc2cc(NC(=O)/C=C/C=C/c3ccc(C(F)(F)F)cc3)ccc2N1C` (stereo in doubt), the IC50 in assay [3] was determined as 0.16 nM.

Consider `CCCCCCn1cc2c3c(cccc31)N(C)[C@@H](C(C)C)C(=O)N[C@H](CO)C2`, for which the IC50 in assay [3] came to 0.5 nM; in assay [1], 113 nM; in assay [2] it was 7.9 nM; in assay [4] it was 27 nM. Moreover, in the assay on ASZ001, the inhibition came out at 38%. For the same compound, the figures for the Activity in the assay with Shh Light II and in the assay with Sufu-KO-LIGHT were 83% and 25%, respectively. Also, the outcome in the assay with NIH/3T3 was Active.

On to `C=CC(C)(C)c1ccc2c3c(c[nH]c13)C[C@@H](CO)NC(=O)[C@H](C(C)C)N2C` [PENDOLMYCIN], for which the values for the Activity in the assay with Shh Light II and with Sufu-KO-LIGHT were 60% and 46%, respectively. In addition, the IC50 in assay [1] and in assay [2] was more than 5000 nM in each case.

For the compound `COC[C@@H]1Cc2cn(C)c3cccc(c23)N(C)[C@@H](C(C)C)C(=O)N1`, the Activity in the assay with Shh Light II was determined as 86%; with Sufu-KO-LIGHT, 69%. Besides, the IC50 in assay [1] came to 478 nM; in assay [2], 1820 nM.

With `CC(C)[C@H]1C(=O)N[C@H](CO)Cc2cn(C)c3cccc(c23)N1C`, the Activity with Shh Light II was 66%; with Sufu-KO-LIGHT, 42%. Moreover, the IC50 in assay [1] is 69 nM; in assay [2], 20 nM; in assay [4] it was 498 nM. In the assay on NIH/3T3, the outcome was Active.

Take `CC(C)[C@H]1C(=O)N[C@H](CO)Cc2c[nH]c3c(Br)ccc(c23)N1C`: the figures for the Activity in the assay with Shh Light II and with Sufu-KO-LIGHT were 70% and 23%, respectively. For the same compound, the IC50 in assay [1] is 1280 nM; in assay [2] it was 264 nM.

As for `CC(C)[C@H]1C(=O)N[C@@H](CO)Cc2c[nH]c3cccc(c23)N1C`, the values for the Activity in the assay on Shh Light II and in the assay on Sufu-KO-LIGHT were 100% and 78%, respectively. Moreover, the figures for the 50% inhibitory concentration (IC50) in assay [1], in assay [2] and in assay [4] were more than 5000 nM, 1920 nM and more than 5000 nM, respectively.
